Assays:
[1] = tested on: Mouse Liver; conditions: chronic study, mouse liver; ref ToxRefDB; cited from earlier work
[2] = target: T1, LXRb (NR1H2) (Homo sapiens, UniProt P55055); assay: ATG_LXRb_TRANS: Factorial reporter gene assay (HepG2); assay type: cell-based; conditions: HepG2 reporter
T1 construct: expressed in transfected cells; host or cells: HepG2
T1 sequence (P55055 1-460): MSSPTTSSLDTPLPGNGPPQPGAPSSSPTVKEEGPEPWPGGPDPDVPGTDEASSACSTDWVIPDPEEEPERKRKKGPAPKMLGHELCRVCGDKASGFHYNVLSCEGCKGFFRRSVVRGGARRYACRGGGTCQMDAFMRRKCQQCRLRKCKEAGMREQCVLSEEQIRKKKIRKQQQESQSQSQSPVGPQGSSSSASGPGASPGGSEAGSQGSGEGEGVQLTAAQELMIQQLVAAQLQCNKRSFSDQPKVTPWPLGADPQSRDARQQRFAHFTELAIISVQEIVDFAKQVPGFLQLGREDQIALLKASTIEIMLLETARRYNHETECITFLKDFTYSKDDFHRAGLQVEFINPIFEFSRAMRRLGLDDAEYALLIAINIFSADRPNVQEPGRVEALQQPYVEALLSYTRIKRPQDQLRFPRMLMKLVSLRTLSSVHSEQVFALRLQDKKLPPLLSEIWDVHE
Experimental: A multiple reporter transcription unit (MRTU) library consisting of 48 transcription factor binding sites was transfected into the HepG2 human liver hepatoma cell line. In addition to the cis-acting reporter genes (CIS), a modification of the approach was used to generate a trans-system (TRANS) with a mammalian one-hybrid assay consisting of an additional 25 MRTU library reporting the activity of nuclear receptor super-family members. […] These assays were performed by Attagene Inc. (Morrisville NC) under contract to EPA.
In addition to the cis-acting reporter genes (CIS), a modification of the approach was used to generate a trans-system (TRANS) with a mammalian one-hybrid assay consisting of an additional 25 MRTU library reporting the activity of nuclear receptor super-family members. […] Chemicals were then tested in the CIS and TRANS assays at seven concentrations starting at the MTC and followed by three-fold serial dilutions. These assays were performed by Attagene Inc. (Morrisville NC) under contract to EPA. Detailed description of the methods, data and analysis methods for this dataset will be presented in a separate publication.

[3] = tested on: CYP2B6; assay: CLZD_CYP2B6: Change in expression of CYP2B6 (primary human hepatocytes); assay type: cell-based; conditions: 24 hr
How it was run: (§1)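 Read-out: mRNA change by multiplexed quantitative nuclease protection assay. Primary human hepatocytes; 5 concentrations, 0.004-40 µM; exposures 6, 24, 48 hr.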

[4] = tested on: Mouse Liver; conditions: chronic study, mouse liver; ref ToxRefDB; cited from earlier work; remark: listed apart in the source
[5] = tested on: CYP1A1; assay: CLZD_CYP1A1: Change in expression of CYP1A1 (primary human hepatocytes); assay type: cell-based; conditions: 24 hr
How it was run: as §1

[6] = tested on: Mouse Liver; conditions: chronic study, mouse liver; ref ToxRefDB; cited from earlier work; remark: listed apart in the source
[7] = tested on: Rat Liver; conditions: chronic study, rat liver; ref ToxRefDB; cited from earlier work
[8] = tested on: Rat Liver; conditions: chronic study, rat liver; ref ToxRefDB; cited from earlier work; remark: listed apart in the source
[9] = tested on: Rat Liver; conditions: chronic study, rat liver; ref ToxRefDB; cited from earlier work; remark: listed apart in the source
[10] = tested on: CYP1A2; assay: CLZD_CYP1A2: Change in expression of CYP1A2 (primary human hepatocytes); assay type: cell-based; conditions: 24 hr
How it was run: as §1

[11] = target: T2, PPARG (peroxisome proliferator-activated receptor gamma) (Homo sapiens, UniProt P37231); assay: ATG_PPARg_TRANS: Factorial reporter gene assay (HepG2); assay type: cell-based; conditions: HepG2 reporter
T2 construct: expressed in transfected cells; host or cells: HepG2
T2 sequence (P37231 1-505): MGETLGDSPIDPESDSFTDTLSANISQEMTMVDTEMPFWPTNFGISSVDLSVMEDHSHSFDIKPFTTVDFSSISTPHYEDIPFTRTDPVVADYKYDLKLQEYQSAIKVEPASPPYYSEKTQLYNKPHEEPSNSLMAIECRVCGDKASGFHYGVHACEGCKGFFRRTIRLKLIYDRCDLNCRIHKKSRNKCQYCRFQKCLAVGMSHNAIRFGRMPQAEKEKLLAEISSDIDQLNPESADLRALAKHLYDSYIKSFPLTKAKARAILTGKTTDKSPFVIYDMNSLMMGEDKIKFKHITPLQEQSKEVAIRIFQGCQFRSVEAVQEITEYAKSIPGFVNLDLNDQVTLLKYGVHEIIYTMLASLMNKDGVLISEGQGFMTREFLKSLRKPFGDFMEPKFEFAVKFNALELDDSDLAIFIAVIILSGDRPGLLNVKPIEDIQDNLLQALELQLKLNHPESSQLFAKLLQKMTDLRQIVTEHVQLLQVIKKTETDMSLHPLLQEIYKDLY
How it was run: (§2)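 HepG2 cells were transfected with a multiple reporter transcription unit (MRTU) library of 48 transcription factor binding sites for the cis-acting PXRE assay. The ERRg, FXR and PPARg assays used a trans mammalian one-hybrid system with a further 25-unit nuclear receptor MRTU library. Chemicals were tested at seven concentrations, from the MTC downward in three-fold steps.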

[12] = tested on: CYP3A4; assay: CLZD_CYP3A4: Change in expression of CYP3A4 (primary human hepatocytes); assay type: cell-based; conditions: 24 hr
How it was run: as §1

[13] = target: T3, PXR (NR1I2) (Homo sapiens, UniProt O75469); assay: NVS_NR_hPXR: Human PXR Fluormone PXR (SXR) green (cell-free HTS); assay type: binding
T3 sequence (O75469 1-434): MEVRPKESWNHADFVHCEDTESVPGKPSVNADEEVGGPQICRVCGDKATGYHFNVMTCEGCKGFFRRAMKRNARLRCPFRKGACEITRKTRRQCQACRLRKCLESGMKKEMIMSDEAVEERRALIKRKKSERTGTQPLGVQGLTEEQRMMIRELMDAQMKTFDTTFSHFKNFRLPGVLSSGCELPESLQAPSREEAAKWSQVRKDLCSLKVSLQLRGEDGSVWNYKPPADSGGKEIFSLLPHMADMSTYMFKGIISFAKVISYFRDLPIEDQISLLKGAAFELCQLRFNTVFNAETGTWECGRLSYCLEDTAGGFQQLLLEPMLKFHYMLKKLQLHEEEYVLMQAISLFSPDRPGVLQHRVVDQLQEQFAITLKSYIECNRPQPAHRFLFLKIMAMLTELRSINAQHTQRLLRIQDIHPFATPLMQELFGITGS
How it was run: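 Responses were normalized to same-plate solvent controls as percent of neutral control. AC50 values came from Hill-equation fits of concentration-response curves.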

[14] = target: T3, PXR (NR1I2); assay: ATG_PXRE_CIS: Factorial reporter gene assay (HepG2); assay type: cell-based; design: endogenous in cells; host or cells: HepG2; conditions: HepG2 reporter
How it was run: as §2

[15] = target: T4, PXR Human (NR1I2) (Homo sapiens, UniProt O75469); assay: NCGC_PXR_Agonist_human: GAL4 BLAM Reporter gene assay: PXR Human; assay type: cell-based; conditions: agonist mode
T4 sequence (O75469 146-434 limits assumed): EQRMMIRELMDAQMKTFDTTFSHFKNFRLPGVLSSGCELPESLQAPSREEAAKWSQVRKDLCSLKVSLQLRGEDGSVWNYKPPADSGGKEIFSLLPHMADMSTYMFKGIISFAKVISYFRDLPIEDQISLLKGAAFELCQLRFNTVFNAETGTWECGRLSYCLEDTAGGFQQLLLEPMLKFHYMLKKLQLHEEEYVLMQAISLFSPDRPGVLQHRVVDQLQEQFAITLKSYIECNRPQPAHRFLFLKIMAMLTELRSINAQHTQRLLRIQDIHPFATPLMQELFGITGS
Experimental: These assays measure binding constants and enzyme inhibition values for nuclear receptors. The targets include [drawing 67] , [drawing 68] , [drawing 69] , [drawing 70] , [drawing 71] , [drawing 72] , [drawing 73] , [drawing 74] , [drawing 75] and [drawing 76] . Each of the nuclear receptor targets was measured in agonist mode. Assays were run at the NIH Chemical Genomics Center (Rockville, MD).
Cell-based HTS Assays: These assays measuring binding constants and enzyme inhibition values for nuclear receptors. The targets include AR, ER, FXR, LXR, PPARα, PPARδ, PPARγ, RXRα, RXRβ and PXR. Each of the nuclear receptor targets was measured in both agonist and antagonist mode, but the antagonist data is still undergoing analysis due to possible interference between cytotoxicity and assay activity, so antagonist mode data were not used in the present analysis. Assays were run at the NIH Chemical Genomics Center (Rockville, MD) as part of the Tox21 collaboration. […] The R^2 was required to be ≥0.5. Values where only the highest concentration exceeded 50% activity were excluded to eliminate weak or false positives. Detailed description of the methods, data and analysis methods for this dataset will be presented in a separate publication.

[16] = target: T3, PXR (NR1I2); assay: ATG_PXR_TRANS: Factorial reporter gene assay (HepG2); assay type: cell-based; design: endogenous in cells; host or cells: HepG2; conditions: HepG2 reporter
How it was run: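 HepG2 cells transfected with multiplexed reporter libraries: cis-acting binding-site reporters (CIS) and a one-hybrid nuclear-receptor trans system (TRANS). Chemicals tested at seven concentrations, starting at the maximum tolerated concentration with three-fold serial dilutions.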

[17] = tested on: ABCB1; assay: CLZD_ABCB1: Change in expression of ABCB1 (primary human hepatocytes); assay type: cell-based; conditions: 24 hr
Experimental: This is a collection of multiplexed gene expression assays focused on Phase I and II xenobiotic metabolizing enzymes and transporters. Human primary cell cultures were treated with chemicals at 5 concentrations (0.004-40 [drawing 42] M) for 6, 24 and 48 hr. Concentration- and time-response profiles of chemicals were measured by the expression of key nuclear receptor target genes, activities of CYP1A enzymes (EROD), and cell morphology. Fourteen gene targets were monitored by quantitative nuclease protection assay including: six representative cytochrome P-450 genes, four hepatic transporters, three Phase II conjugating enzymes, and one endogenous metabolism gene involved in cholesterol synthesis. The target genes associated with nuclear receptor pathways are as follows: [drawing 43] and [drawing 44] with [drawing 45]; [drawing 46] , [drawing 47] , [drawing 48] , [drawing 49] , [drawing 50] and [drawing 51] with [drawing 52]; [drawing 53] , [drawing 54] , [drawing 55] and [drawing 56] with [drawing 57]; [drawing 58] with [drawing 59]; and [drawing 60] with [drawing 61] . Assays were run in primary human hepatocyte cultures by CellzDirect Invitrogen Inc. (Durham, NC), in collaboration with EPA.
Multiplexed Gene Expression in Human Primary Hepatocytes: This is a collection of multiplexed gene expression assays focused on Phase I and II metabolic enzymes and transporters. […] Fourteen gene targets were monitored by quantitative nuclease protection assay: six representative cytochrome P450 genes, four hepatic transporters, three Phase II conjugating enzymes, and one endogenous metabolism gene involved in cholesterol synthesis. Cells were exposed at 5 concentrations (0.004-40 µM) for 6, 24 or 48 hr. Gene targets are sentinels for five nuclear receptor signaling pathways: AhR, CAR, PXR, FXR, and PPARα. All gene are associated with nuclear receptor pathways: CYP1A1 and CYP1A2 with AHR; ABCB1, ABCG2, CYP2B6, CYP2C9, CYP2C19 and UGT1A1 with CAR; CYP3A4, GSTA2, SLCO1B1 and SULT2A1 with PXR; HMGCS2 with PPARA; and ABCB11 with FXR. […] Detailed description of the methods, data and analysis methods for this dataset will be presented in a separate publication.

Row | Compound | CHR_Mouse_Liver_1_AnyLesion [1] | ATG_LXRb_TRANS [2] | CLZD_CYP2B6_24 [3] | CHR_Mouse_Liver_3_NeoplasticLesion [4] | CLZD_CYP1A1_24 [5] | CHR_Mouse_Liver_2_PreneoplasticLesion [6] | CHR_Rat_Liver_2_PreneoplasticLesion [7] | CHR_Rat_Liver_1_AnyLesion [8] | CHR_Rat_Liver_3_NeoplasticLesion [9] | CLZD_CYP1A2_24 [10] | ATG_PPARg_TRANS [11] | CLZD_CYP3A4_24 [12] | NVS_NR_hPXR [13] | ATG_PXRE_CIS [14] | NCGC_PXR_Agonist_human [15] | ATG_PXR_TRANS [16] | CLZD_ABCB1_24 [17]
1 | Cc1[nH]c(=O)n(C(C)(C)C)c(=O)c1Cl [r296] | 6 | 4.119 | 5.239 | 6 | 5.327 | 6 | – | – | – | – | – | – | – | – | – | – | –
2 | CC/C(=N\OC/C=C/Cl)C1=C(O)CC(C2CCOCC2)CC1=O (stereo not shown) [r295] | 6 | 4.194 | – | 6 | – | 6 | 6 | 6 | 6 | – | – | – | – | – | – | – | –
3 | Cc1cc(C)nc(Nc2ccccc2)n1 [r273] | – | 4.237 | 5.27 | – | 4.775 | – | 6 | 6 | 0 | 4.839 | 4.137 | – | – | – | – | – | –
4 | C#CC(C)(C)NC(=O)c1cc(Cl)cc(Cl)c1 [r265] | 6 | – | 5.253 | 6 | – | 6 | 0 | 6 | 0 | – | – | 4.621 | 4.411 | 4.824 | 4.619 | 4.409 | 5.227

From paper PMC3038857, “Using Nuclear Receptor Activity to Stratify Hepatocarcinogens” (PLoS ONE, 2011)
